How the values were obtained:
CR4 (CD11c) = CR4 (CD11c) surface expression on iPSC-derived microglia; type: cell-based, human; details: Aβ 5 µg/mL, 60 min, 37 °C
Procedure: (§2) For microglial differentiation, the human induced pluripotent stem cell (iPSC) line BIHi043A-XM001 was used[56]. Cells were cultured on Matrigel™ (cat. no. 356234, Corning)-coated culture plates in Essential 8™ Flex Medium (cat. no. A2858501, Gibco). The culture medium was changed daily, and cells were passaged in clusters every 3–4 days at a density of 80% using 0.5 mM EDTA/PBS. iPSCs were differentiated into microglia using the protocol described[72]. First, iPSCs were differentiated into hematopoietic progenitors (HP) using STEMdiff™ Hematopoietic Kit (cat. No. 05310, Stem Cell Technologies). On Day −1, iPSCs with a 70–80% density were passaged with ReLeSR™ (cat. no. 05872, Stem Cell Technologies) into E8 flex containing Matrigel-coated 6-well plates. Clusters of 100 cells were seeded at the desired density of 50–100 per well. At Day 0, in wells with 40–80 clusters, the E8 flex medium was replaced with 2 mL medium A. On Day 2, 1 mL of medium A was added to the well. On Day 3, the medium was removed and replaced with 2 mL Medium B. On Days 5, 7, and 9, 1 mL of medium B was added to the well. […] The adherent cells were gently washed off to increase the yield using a 5 mL serological pipette. […] On Days 13, 15, 17, 19, and 21, 1 mL of microglia differentiation medium was added to the well. […] On Days 38–42, the microglia were ready for functional studies. […]

Aβ = experiment: FDM-NTA of synthetic Aβ in PBS, QD-antibody conjugates; type: binding, human; details: PBS pH 7.4; detected by aducanumab biosimilar; A-Aβ value on average
Procedure: QD Ab (Ab) coupling was performed using SiteClick Qdot 655 Ab Labeling Kit (no. S10453; Molecular Probes) according to manufactures instructions. In brief, Ab, either “Aducanumab biosimilar” human IgG1,κ to aggregated Aβ (cat. no. PX-TA1335, lot. no. 040721-A01, ProteoGenix), or “Isotype control” human IgG1,κ (cat.no. HG1K, lot.no. MA14OC2803, SinoBiologicals) was concentrated in Ab preparation buffer to a concentration of 2 mg/mL or above. The buffer was simultaneously changed to 0.05 M Tris, pH 7.0. Next, carbohydrates on the Ab were modified by incubation with β-galactosidase for 4 h at 37 °C. […]
Samples for NTA were analyzed using a NanoSight NS300 system (Malvern Panalytical). The system was configured with a 405-nm laser, a high-sensitivity scientific complementary metal–oxide–semiconductor Orca Flash 2.8/Hamamatsu C11440 camera (Malvern Panalytical), a syringe pump, and for fluorescence measurements, a 650-nm long-pass filter was used. […] The videos were collected and analyzed using NanoSight software (version 3.3 and 3.4 with a concentration upgrade; Malvern). […] The camera level was set for both scattering and fluorescence mode to a maximum of 16. […] Only samples analyzed with the same detection threshold were compared. Pure protein was analyzed in PBS/EDTA with and without a 1:20,000 dilution of anti-Aβ (Aducanumab bios.) or isotype-matched Ab-QD reporters. […]

CR3 I-domain = experiment: SPR, CR3 I domain binding to immobilized Aβ or iC3b; design: species or system human; details: pH 7.4, 1 mM MgCl2; EVILFIT 2D distribution
Procedure: (§1) SPR assays were performed using CM-4 chips (cat no. 50-105-5323, Cytiva) and run in the BIAcore 3000 instrument (GE Health Care). As described, the chip surfaces were coupled with monomeric Aβ, aggregated Aβ, or iC3b using an amine-coupling chemistry method. A reference surface was prepared by coupling the surfaces with ethanolamine rather than protein. The CR3 and CR4 I domains were stabilized in the activated conformation by mutation of a C-terminal isoleucine residue to glycine and prepared as described earlier. […] The prepared solutions were injected over the surfaces; the contact time (tc) was 180 s, and the following dissociation phase time was 400 s. […] The distribution P (kd, KD) was calculated using the discretization of the equation:1 STotal=∫KDminKDmax∫koffminkoffmaxSkoff,KD,canalyte,tPkoff,KDdkoffdKD where S is the SPR signal. […] This was done through a global fit to the association and dissociation traces at the analyte concentrations (canalyte) mentioned above. The algorithm used Tikhonov regularization as described[44] at a confidence level of p = 0.95 to determine the most parsimonious distribution consistent with the data, showing only features essential to fit the data.

iPSC-derived microglia = experiment: Lysosomal activity of iPSC-derived microglia (LysoTracker); type: cell-based, human; details: Aβ 5 µg/mL, 60 min, 37 °C
Procedure: as §2

CR3 (CD11b) = CR3 (CD11b) surface expression on iPSC-derived microglia; type: cell-based, human; details: Aβ 5 µg/mL, 60 min, 37 °C
Procedure: as §2

CR4 I-domain = target: T1, CR4 I-domain (Homo sapiens, UniProt P20702, I333G); experiment: SPR, CR4 I domain binding to immobilized Aβ or iC3b; details: even at high concentrations of the CR4 I-domain (up to 10000 nM)
T1 construct: made in house
T1 sequence (P20702 165-339 I333G limits assumed): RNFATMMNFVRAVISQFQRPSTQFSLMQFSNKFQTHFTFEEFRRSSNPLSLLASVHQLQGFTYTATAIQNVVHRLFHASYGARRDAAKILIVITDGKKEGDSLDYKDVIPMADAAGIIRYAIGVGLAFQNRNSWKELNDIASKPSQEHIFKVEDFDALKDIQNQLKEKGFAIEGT
Procedure: as §1

Kd (CR3 I-domain): ~79 µM
koff (CR3 I-domain): 0.11 s⁻¹
Interaction with CR4 I-domain (CR4 I-domain): no interaction
Substance: M-Aβ: Unaggregated and mainly monomeric synthetic human Aβ
CD11c (CR4) surface expression (CR4 (CD11c)): KIM127 Ab did not influence the CD11c expression
Particles above 600 nm (Aβ): less than 0.5 × 10^6 particles/mL
Lysosomal activity of iMGs (iPSC-derived microglia): no such ability
CD11b (CR3) surface expression (CR3 (CD11b)): not affected

From paper PMC10858199, “Amyloid-β aggregates activate peripheral monocytes in mild cognitive impairment” (Nature Communications, 2024)
